Like-named read-outs stand apart in the source and are kept apart here.
Assays:
[1] = test system: G361 cells; assay: DNA damage and apoptotic cell death by immunoblotting analysis; format: cell-based, human; conditions: 24 h
Method: To confirm DNA damage caused by a combination of compound 3g and irradiation in G361 cells, phosphorylation of histone H2A.X at Ser-139 (γH2A.X), which is a well-accepted marker of DNA damage, was evaluated using immunoblotting analysis (FIG. 2). The cells were treated with different doses (0.1, 0.3 or 1.1 μM) of compound 3g for 4 h, then either kept in dark or exposed to light with a total irradiation dose of 10 J/cm^2 and cultivated for subsequent 24 h. After this period, the cells were harvested and analyzed by immunoblotting.
The cell lysates were prepared in RIPA buffer. Equal protein amounts were loaded and separated on SDS-polyacrylamide gels, electroblotted onto nitrocellulose membranes and after blocking, overnight incubation with specific primary antibodies and incubation with peroxidase-conjugated secondary antibodies, the peroxidase activity was detected with SuperSignal West Pico reagents (Thermo Scientific) using a CCD camera LAS-4000 (Fujifilm). All primary antibodies were diluted in TBS containing 4% BSA and 0.1% Tween 20. The specific antibodies were purchased from Cell Signaling (anti-PARP-1, clone 46D11; anti-caspase 7; HRP-linked secondary antibodies), Santa Cruz Biotechnology (anti-β-actin, clone C4), Millipore (anti-phospho-histone H2A.X, Ser139, clone JBW301).
The cleavage of PARP-1, an enzyme involved in DNA repair, which gets cut and inactivated by caspases during apoptotic cell death, was also apparent when combining said concentration and irradiation dose. […] It confirms that the above observation is a consequence of a photodynamic effect.

[2] = Absorption and fluorescence properties in water; format: physicochemical
Method: To determine the wavelength of light, at which 1,1-dimethyl-2-[(E)-2-phenylethenyl]-1H-benzo[e]indole derivatives should be irradiated for the investigation of their photodynamic activity, the absorption and fluorescence properties thereof were measured in water. The excitation wavelength λex was set to 380 nm. Based on the results an in-house constructed LED based light source specifically designed for the irradiation of 96-well microplates and Petri dishes (Tomecka et al., CZ302829B6, 2006) was chosen, with a maximal wavelength emission of 414 nm and light intensity set to 20 mW/cm^2.

[3] = test system: G361 cells; assay: Flow cytometric detection of cell death (sub-G1 populations); format: cell-based, human; conditions: for number of cells in sub-G1 population: G361 cells
Method: (§1) For photodynamic treatments, G361 cells (human skin melanoma) were cultivated in DMEM medium without phenol red supplemented with 10% fetal bovine serum, 100 U/mL penicillin, 100 μg/mL streptomycin, 2 mM glutamine, at 37° C. in 5% CO2 atmosphere. Cells were treated with test compounds and after 4 h were irradiated (the maximal wavelength emission of 414 nm and different total doses up to 10 J/cm^2). Further cultivation lasted for subsequent 16, 24 or 72 h.
Asynchronous cells were seeded and, after a pre-incubation period, treated with compound 3g for 4 h, irradiated and after further 24 h of incubation, samples were fixed and stained with propidium iodide. DNA content was analyzed by flow cytometry using a 488 nm laser (BD FACS Verse with software BD FACSuite™, version 1.0.6.) and cell cycle distribution was analyzed using ModFit LT (Verity Software House).

[4] = test system: G361 cells; assay: Evaluation of cellular viability by microscopy (propidium iodide staining); format: cell-based, human; conditions: 1.1 μM+10 J/cm^2, 16 h after irradiation
Method: G361 cells were treated with compound 3g, 4 h later irradiated with 10 J/cm^2 and further cultivated for 16 h. Control cells were treated with the same compound without irradiation. After the incubation period, cells were stained with propidium iodide (final concentration 10 μg/mL) to evaluate their viability by fluorescence microscopy. In parallel, the morphology of treated cells was evaluated by light microscopy. Experiment clearly confirmed the ability of compound 3g to affect cellular viability after light irradiation in dose-dependent manner as shown by positive propidium iodide staining (>95% of analyzed cells at 1.1 μM of compound 3g+10 J/cm^2) as well as significant morphological changes reflecting ongoing cellular death (FIG. 3).

[5] = test system: G361 cells (human skin melanoma); assay: MTT cell viability assay with photodynamic treatment; format: cell-based
Method: as §1
Cell viability (EC50) was determined using the MTT (Sigma-Aldrich) assay in 96-well microplates. Cells were seeded, next day treated with test compounds for 4 h and subsequently irradiated (the maximal wavelength emission of 414 nm and total dose of 2.5 and 10 J/cm^2). After irradiation, the cells were incubated for further 72 h and then the MTT solution was added. Cells were incubated for another 4 h at 37° C. and then the 0.1% SDS was added to the wells to solubilize the violet formazan crystals. The measurement of absorbance was carried out on reader Tecan Infinite M200Pro at 570 nm. Dark viability was measured in parallel under the same conditions without irradiation.

[6] = test system: caspases 3 and 7; assay: Caspase-3/7 assay; format: cell-based, human; conditions: G361 cells; 1.1 μM+10 J/cm^2
Method: The cell lysates were incubated for 4 h with 100 μM Ac-DEVD-AMC (the substrate of caspases 3 and 7) in the assay buffer (25 mM PIPES, 2 mM EGTA, 2 mM MgCl2, 5 mM DTT, pH 7.3). The fluorescence of the product was measured using a Fluoroskan Ascent microplate reader (Labsystems) at 355/460 nm (excitation/emission).
To confirm apoptosis as a mechanism of cell death, activity of pro-apoptotic caspases 3 and 7, which are involved in mediating cell death signalling transduction, was quantified upon treatment with compound 3g and light irradiation (FIG. 1).

For `CC1(C)C(/C=C/c2ccc(C#N)c(F)c2)=Nc2ccc3ccccc3c21` [Compound 3g, 4-[(E)-2-(1,1-Dimethyl-1H-benzo[e]indol-2-yl)ethenyl]-2-fluorobenzonitrile], the “H2A.X phosphorylation (Ser-139, γH2A.X)” value ([1]; G361 cells kept in the dark, 0.1, 0.3 or 1.1 μM) was “did not show any H2A.X phosphorylation”, the “H2A.X phosphorylation (Ser-139, γH2A.X) level” value ([1]; G361 cells, 1.1 μM+10 J/cm^2) was “massive increase” and the “cleavage of PARP-1” value ([1]; G361 cells, 1.1 μM+10 J/cm^2) was “apparent”. The “caspase 7 cleavage” value ([1]; G361 cells, treated and irradiated (10 J/cm^2)) was “cleavage activation of caspase 7”, the Stokes shift [2] was 102 nm and the λabs [2] was 433 nm. The λem ([2]; excitation wavelength 380 nm) was 535 nm, the “number of cells in sub-G1 population” value ([3]; 0.3 μM, 1.1 J/cm^2, 24 h after irradiation) was 0 (number of cells in sub-G1 population <10% (0)) and the “number of cells in sub-G1 population” value ([3]; 0.3 μM, 3.3 J/cm^2, 24 h after irradiation) was 0 (number of cells in sub-G1 population <10% (0)). The “number of cells in sub-G1 population” value ([3]; 0.3 μM, Dark, 24 h) was 0 (number of cells in sub-G1 population <10% (0)), the “number of cells in sub-G1 population” value ([3]; 1.1 μM, 1.1 J/cm^2, 24 h after irradiation) was 0 (number of cells in sub-G1 population <10% (0)) and the “number of cells in sub-G1 population” value ([3]; 1.1 μM, 3.3 J/cm^2, 24 h after irradiation) was “+ (10-50% (+))”. The “number of cells in sub-G1 population” value ([3]; 1.1 μM, Dark, 24 h) was 0 (number of cells in sub-G1 population <10% (0)), the “number of cells in sub-G1 population” value ([3]; 3.3 μM, 1.1 J/cm^2, 24 h after irradiation) was “+ (10-50% (+))” and the “number of cells in sub-G1 population” value ([3]; 3.3 μM, 3.3 J/cm^2, 24 h after irradiation) was “++ (>50% (++))”. For the same compound, the “number of cells in sub-G1 population” value ([3]; 3.3 μM, Dark, 24 h) was 0 (number of cells in sub-G1 population <10% (0)), the “sub-diploid (sub-G1) populations” value ([3]; treated and irradiated G361 cells, concentration and light irradiation dependent) was “increase” and the “positive propidium iodide staining” value [4] was > 95 % of analyzed cells. For the same compound, the EC50 ([5]; G-361, G361 cells, light energy: Dark (Table 4), read-out: EC50 ± SD) was 7600 ± 900 nM, the EC50 ([5]; G-361, dark kept G361 cells, 4 h treatment, further 72 h, MTT, read-out: G361 - EC50, Dark) was 6200 nM and the EC50 ([5]; G-361, light or radiation study, G361 cells, light energy 2.5 J/cm^2 (Table 4), read-out: EC50 ± SD) was 1200 ± 300 nM. The EC50 ([5]; G-361, light or radiation study, G361 cells, light energy 10 J/cm^2 (Table 4), read-out: EC50 ± SD) was 700 ± 100 nM, the EC50 ([5]; G-361, light or radiation study, light irradiated (414 nm, 10 J/cm^2) G361 cells, 4 h treatment, irradiation, further 72 h, MTT, read-out: G361 - EC50, 10 J/cm^2) was 600 nM and the “capacity to induce apoptosis (caspase 3/7 activity)” value [6] was “clearly apparent”.
